Holding throughout (experiment): β-Lactamase inhibition, nitrocefin spectrophotometric assay
One assay has as its target class B enzyme CcrA (Bacteroides fragilis, UniProt P25910). Type of assay: biochemical. To be noted: nitrocefin 50 μg/ml; 10 min preincubation at 25° C.; pH 7.0; read-out: IC50 Class-B Ccr.
For a further assay, the target named is class C enzyme AmpC (Enterobacter cloacae, UniProt P05364). The class given is biochemical.
For assay [1], the target named is class A β-lactamase TEM-1 (Escherichia coli, UniProt P62593). Type of assay: biochemical, E. coli. To be noted: nitrocefin 50 μg/ml; 10 min preincubation at 25° C.; pH 7.0.
Assay [2] has as its target class A β-lactamase Imi-1 (Enterobacter cloacae, UniProt Q46991).

class B enzyme CcrA, sequence (P25910 19-249): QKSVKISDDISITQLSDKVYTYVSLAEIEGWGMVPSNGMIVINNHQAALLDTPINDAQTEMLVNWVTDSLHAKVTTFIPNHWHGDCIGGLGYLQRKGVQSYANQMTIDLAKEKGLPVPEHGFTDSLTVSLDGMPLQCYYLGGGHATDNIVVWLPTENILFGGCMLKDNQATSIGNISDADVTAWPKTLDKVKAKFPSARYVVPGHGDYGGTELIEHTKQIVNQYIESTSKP
class C enzyme AmpC, sequence (P05364 21-381): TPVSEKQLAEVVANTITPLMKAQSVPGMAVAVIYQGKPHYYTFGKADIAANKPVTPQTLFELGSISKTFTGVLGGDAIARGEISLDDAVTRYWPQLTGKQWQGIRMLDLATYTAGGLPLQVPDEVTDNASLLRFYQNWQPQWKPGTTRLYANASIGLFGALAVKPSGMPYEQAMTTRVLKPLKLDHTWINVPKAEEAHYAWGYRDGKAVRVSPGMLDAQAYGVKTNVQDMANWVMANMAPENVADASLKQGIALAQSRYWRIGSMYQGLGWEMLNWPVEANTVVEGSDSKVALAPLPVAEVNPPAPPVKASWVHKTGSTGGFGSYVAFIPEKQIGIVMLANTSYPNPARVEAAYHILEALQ
class A β-lactamase TEM-1, sequence (P62593 24-286 limits assumed): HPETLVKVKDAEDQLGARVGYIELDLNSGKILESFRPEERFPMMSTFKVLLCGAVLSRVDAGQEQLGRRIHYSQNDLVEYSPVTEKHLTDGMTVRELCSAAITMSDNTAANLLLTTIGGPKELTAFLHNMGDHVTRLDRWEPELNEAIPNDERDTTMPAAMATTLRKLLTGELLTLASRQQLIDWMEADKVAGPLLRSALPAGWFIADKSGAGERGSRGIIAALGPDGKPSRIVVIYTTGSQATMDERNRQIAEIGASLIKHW
class A β-lactamase Imi-1, sequence (Q46991 entry or part of it): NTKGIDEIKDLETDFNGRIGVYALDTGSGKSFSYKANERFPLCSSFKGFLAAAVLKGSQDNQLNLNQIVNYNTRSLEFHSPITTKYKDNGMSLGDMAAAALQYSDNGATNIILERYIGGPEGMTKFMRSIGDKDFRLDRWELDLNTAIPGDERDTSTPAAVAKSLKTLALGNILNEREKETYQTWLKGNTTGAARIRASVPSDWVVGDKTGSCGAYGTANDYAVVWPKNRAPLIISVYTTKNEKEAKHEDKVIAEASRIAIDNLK

As to `O=C(O)C1=CS[C@@H]2/C(=C\c3cn4c5c(sc4n3)COCC5)C(=O)N12` [Compound 2, (5R),(6Z)-6-(5,8-dihydro-6H-imidazo[2,1-b]pyrano[4,3-d][1,3]thiazol-2-ylmethylene)-7-oxo-4-thia-1-azabicyclo[3.2.0]hept-2-ene-2-carboxylic acid], the IC50 turned out to be 200 nM at class B enzyme CcrA, 1.5 nM against class C enzyme AmpC, 2.8 nM in assay [1] and 100 nM in assay [2].
As to `O=C(O)C1=CS[C@@H]2/C(=C\c3cn4c5c(sc4n3)CCC5)C(=O)N12` [Compound 1, (5R),(6Z)-6-(6,7-dihydro-5H-cyclopenta[d]imidazo[2,1-b][1,3]thiazol-2-ylmethylene)-7-oxo-4-thia-1-azabicyclo[3.2.0]hept-2-ene-2-carboxylic acid], the IC50 on class B enzyme CcrA is 240 nM; against class C enzyme AmpC, 2.4 nM; in assay [1], 1.4 nM.

The IC50 is the concentration at which inhibition is half-maximal.

Values taken from US20070027130A1, “Tricyclic 6-alkylidene-penem beta-lactamase inhibitors and beta-lactam antibiotic combination: a broad spectrum antibiotic” (priority 2005, published 2007).
